Results taken from patent US9533977B2, “Oxazolidinone derivative as CETP inhibitor, its preparation method, and pharmaceutical composition comprising the same” (DONG-A ST CO., LTD., priority 2013, dated 2017).

Target: T1, CETP (Homo sapiens, UniProt P11597)
T1 construct: from tissue; host or cells: human plasma from healthy men
T1 sequence (P11597 18-493): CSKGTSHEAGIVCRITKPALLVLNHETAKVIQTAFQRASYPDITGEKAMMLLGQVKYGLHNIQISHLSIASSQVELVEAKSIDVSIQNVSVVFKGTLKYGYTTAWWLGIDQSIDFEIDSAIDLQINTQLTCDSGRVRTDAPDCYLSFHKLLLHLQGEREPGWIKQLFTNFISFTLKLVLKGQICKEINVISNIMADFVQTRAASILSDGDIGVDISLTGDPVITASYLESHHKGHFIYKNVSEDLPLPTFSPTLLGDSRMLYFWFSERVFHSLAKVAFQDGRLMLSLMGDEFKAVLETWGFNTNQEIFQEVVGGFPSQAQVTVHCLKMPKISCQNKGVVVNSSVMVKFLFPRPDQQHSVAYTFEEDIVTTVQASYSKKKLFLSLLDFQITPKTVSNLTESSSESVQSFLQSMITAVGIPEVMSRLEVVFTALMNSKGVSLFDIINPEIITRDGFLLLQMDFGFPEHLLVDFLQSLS
Assay: Inhibitory activity against CETP in human plasma (Roar CETP activity kit, fluorescence)
Type: biochemical
Conditions: plasma from healthy men diluted 1:10 in assay buffer, 37° C., 3 hrs, fluorescence 465/535 nm; read-out: IC50, Inhibition of CETP Activity in Human Plasma
Protocol: A CETP activity kit (#RB-CETP) was purchased from Roar […], Inc. A donor and an acceptor (each, 4 ul), a 10× assay buffer (177 ul), and each of dilutions of test compounds in dimethylsulfoxide (DMSO, Sigma-Aldrich) (0.01 nM˜10000 nM) were added to each well of black round-bottom 96-well plates (Corning #3792). Plasma samples from healthy men were diluted in the assay buffer (1:10=plasma:assay buffer), and added to each well. The plates were sealed with a sealing film (Sigma-Aldrich, #Z369659), and incubated in a 37° C. incubator microplate shaker (#SLST-3, Seolin Bio) for 3 hrs. After removal of the sealing film, fluorescence was read on Spectra Max Gemini EM (Molecular devices) with an excitation wavelength of 465 nm and an emission wavelength of 535 nm. Measurements were calculated according to the following formula. Calculated value=(Fluorescence Intensity with both compound and plasma−Fluorescence Intensity with compound but without plasma)/(Fluorescence Intensity with plasma but without compound−Fluorescence Intensity with neither compound nor plasma)
From the calculated value, a sigmoidal curve (y=start+(end-start)x^n/k^n+x^n) was drawn using Origin Software (OriginLab Corporation, ver. 8.0724) to obtain IC50 values.

Row | Compound | IC50
1 | CCN(c1ncc(C(F)(F)F)cc1CN1C(=O)O[C@H](c2cc(C(F)(F)F)cc(C(F)(F)F)c2)[C@@H]1C)C1CCC2(CC1)OCCO2 [Example 21, (4S,5R)-5-[3,5-bis(trifluoromethyl)phenyl]-4-methyl-3-({[2-(ethyl)(1,4-dioxaspiro[4.5]decan-8-yl)amino]-5-trifluoromethylpyridin-3-yl}methyl)-oxazolidin-2-one] | 114 nM
2 | CCOc1cccc(-c2cnc(N(CC)C3CCOCC3)c(CN3C(=O)O[C@H](c4cc(C(F)(F)F)cc(C(F)(F)F)c4)[C@@H]3C)c2)c1 [Example 48, (4S,5R)-5-[3,5-bis(trifluoromethyl)phenyl]-4-methyl-3-({[2-(ethyl)(tetrahydro-2H-pyran-4-yl)amino]-5-(3-ethoxyphenyl)pyridin-3-yl}methyl)-oxazolidin-2-one] | 133 nM
3 | CCN(c1ncc(C(F)(F)F)cc1CN1C(=O)O[C@H](c2cc(C(F)(F)F)cc(C(F)(F)F)c2)[C@@H]1C)C1CCN(C)CC1 [Example 29, (4S,5R)-5-[3,5-bis(trifluoromethyl)phenyl]-4-methyl-3-({[2-(ethyl)(1-methylpiperidin-4-yl)amino]-5-(trifluoromethyl)pyridin-3-yl}methyl)-oxazolidin-2-one] | 540 nM
4 | CCNC1CCC(N(CC)c2ncc(C(F)(F)F)cc2CN2C(=O)O[C@H](c3cc(C(F)(F)F)cc(C(F)(F)F)c3)[C@@H]2C)CC1 (stereo partly drawn) [Example 23, (4S,5R)-5-[3,5-bis(trifluoromethyl)phenyl]-4-methyl-3-({[2-(ethyl)(4-ethylaminocyclohexyl)amino]-5-(trifluoromethyl)pyridin-3-yl}methyl)-oxazolidin-2-one] | 44.4 nM
5 | CCN(C[C@H]1CC[C@H](CC(=O)O)CC1)c1ncc(-c2cn(C)nc2C)nc1CN1C(=O)OC(c2cc(C(F)(F)F)cc(C(F)(F)F)c2)[C@@H]1C (stereo partly drawn) [Example 108] | 45.9 nM
6 | CCN(c1ncc(-c2ccco2)cc1CN1C(=O)O[C@H](c2cc(C(F)(F)F)cc(C(F)(F)F)c2)[C@@H]1C)C1CCOCC1 [Example 49, (4S,5R)-5-[3,5-bis(trifluoromethyl)phenyl]-4-methyl-3-({[2-(ethyl)(tetrahydro-2H-pyran-4-yl)amino]-5-(furan-2-yl)pyridin-3-yl}methyl)-oxazolidin-2-one] | 23.7 nM
7 | CCN(c1ncc(-c2cscc2C)cc1CN1C(=O)O[C@H](c2cc(C(F)(F)F)cc(C(F)(F)F)c2)[C@@H]1C)C1CCCCC1 [Example 86, (4S,5R)-5-[3,5-bis(trifluoromethyl)phenyl]-4-methyl-3-({[2-(ethyl)(cyclohexyl)amino]-5-(3-methyl-thiophen-4-yl)pyridin-3-yl}methyl)-oxazolidin-2-one] | 30.4 nM
8 | CCCN1CCC(N(CC)c2ncc(C(F)(F)F)cc2CN2C(=O)O[C@H](c3cc(C(F)(F)F)cc(C(F)(F)F)c3)[C@@H]2C)CC1 [Example 31] | 108 nM
9 | CCN(c1ncc(-c2cc(C(F)(F)F)nn2C)cc1CN1C(=O)O[C@H](c2cc(C(F)(F)F)cc(C(F)(F)F)c2)[C@@H]1C)C1CCCCC1 [Example 60, (4S,5R)-5-[3,5-bis(trifluoromethyl)phenyl]-4-methyl-3-({[2-(ethyl)(cyclohexyl-4-yl)amino]-5-(1-methyl-1H-3-(trifluoromethyl)-pyrazol-5-yl)pyridin-3-yl}methyl)-oxazolidin-2-one] | 34.7 nM
10 | CCN(CC1CCC(CC(=O)O)CC1)c1ncc(-c2nccs2)nc1CN1C(=O)OC(c2cc(C(F)(F)F)cc(C(F)(F)F)c2)C1C [Example 112, trans-4-({[3-({(4S,5S)-5-[3,5-bis(trifluoromethyl)phenyl]-4-methyl-2-oxazolidin-3-yl}methyl)-5-(thiazol-2-yl)pyrazin-2-yl]{[N-(ethyl)aminomethyl]cyclohexyl)}acetic acid] | 37.4 nM
11 | CCN(C[C@H]1CC[C@H](CC(=O)O)CC1)c1ncc(-c2cc(C)cs2)nc1CN1C(=O)OC(c2cc(C(F)(F)F)cc(C(F)(F)F)c2)[C@@H]1C (stereo partly drawn) [Example 110] | 56.2 nM
12 | (4S,5R)-5-[3,5-bis(trifluoromethyl)phenyl]-4-methyl-3-({2-[(3R,4R)-4-ethoxytetrahydrofuran-3-yl)(methyl)amino]-5-(trifluoromethyl)pyridin-3-yl}methyl)-oxazolidin-2-one [Example 3] | 194 nM
13 | C[C@H]1C(c2cc(C(F)(F)F)cc(C(F)(F)F)c2)OC(=O)N1Cc1nc(N2CCCC2)cnc1N(C)C[C@H]1CC[C@H](CC(=O)O)CC1 (stereo partly drawn) [Example 127] | 43 nM
14 | CCN(c1ncc(-c2ccsc2C#N)cc1CN1C(=O)O[C@@H](c2cc(C(F)(F)F)cc(C(F)(F)F)c2)[C@@H]1C)C1CCCCC1 [Example 82, 3-{5-({(4S,5S)-5-[3,5-bis(trifluoromethyl)phenyl]-4-methyl-2-oxo-oxazolidin-3-yl}methyl)-6-[(cyclohexyl)(ethyl)amino]pyridin-3-yl}-thiophene-2-carbonitrile] | 246 nM
15 | CCN(c1ncc(-c2c(C)nn(C)c2C)cc1CN1C(=O)O[C@H](c2cc(C(F)(F)F)cc(C(F)(F)F)c2)[C@@H]1C)C1CCCCC1 [Example 64, (4S,5R)-5-[3,5-bis(trifluoromethyl)phenyl]-3-({[2-(ethyl)(cyclohexyl)amino]-5-(1,3,5-trimethyl-1H-pyrazol-4-yl}pyridin-3-yl}methyl)-oxazolidin-2-one] | 29.3 nM
16 | CCN(c1ncc(-c2cccn2C(=O)OC(C)(C)C)cc1CN1C(=O)O[C@@H](c2cc(C(F)(F)F)cc(C(F)(F)F)c2)[C@@H]1C)C1CCCCC1 [Example 76, t-butyl 2-{5-({(4S,5S)-5-[3,5-bis(trifluoromethyl)phenyl]-4-methyl-2-oxo-oxazolidin-3-yl}methyl)-6-[(cyclohexyl)(ethyl)amino]pyridin-3-yl}-1H-pyrrole-1-carboxylate] | 87.4 nM

Compounds with a lower IC50, results first:

Row | IC50 | Compound
17 | 3.8 nM | (4S,5R)-5-[3,5-bis(trifluoromethyl)phenyl]-4-methyl-3-({[2-(methyl)(cyclohexyl)amino]-5-(3,5-dimethyl-isoxazol-4-yl)pyrazin-3-yl}methyl)-oxazolidin-2-one [Example 95]
18 | 6.7 nM | CCN(c1ncc(-c2ccc(C#N)s2)cc1CN1C(=O)O[C@@H](c2cc(C(F)(F)F)cc(C(F)(F)F)c2)[C@@H]1C)C1CCCCC1 [Example 71, 5-{5-({(4S,5S)-5-[3,5-bis(trifluoromethyl)phenyl]-4-methyl-2-oxo-oxazolidin-3-yl}methyl)-6-[(cyclohexyl)(ethyl)amino]pyridin-3-yl}-thiophene-2-carbonitrile]
19 | 11.6 nM | (4S,5R)-5-[3,5-bis(trifluoromethyl)phenyl]-3-({[2-(cyclopropyl)(cyclohexyl)amino]-5-(3,5-dimethyl-isoxazol-4-yl)pyrazin-3-yl}methyl)-4-methyloxazolidin-2-one [Example 97]
20 | 19 nM | CCN(c1ncc(C#N)cc1CN1C(=O)O[C@H](c2cc(C(F)(F)F)cc(C(F)(F)F)c2)[C@@H]1C)C1CCCCC1 [Example 54]
21 | 22 nM | CCN(c1ncc(-c2cccs2)cc1CN1C(=O)O[C@H](c2cc(C(F)(F)F)cc(C(F)(F)F)c2)[C@@H]1C)C1CCCCC1 [Example 80, (4S,5R)-5-[3,5-bis(trifluoromethyl)phenyl]-4-methyl-3-({[2-(ethyl)(cyclohexyl)amino]-5-(thiophen-2-yl)pyridin-3-yl}methyl)-oxazolidin-2-one]
22 | 16.7 nM | Cc1noc(C)c1-c1cnc(N(C)C2CCCCC2)c(CN2C(=O)O[C@H](c3cc(C(F)(F)F)cc(C(F)(F)F)c3)[C@@H]2C)c1 [Example 57, (4S,5R)-5-[3,5-bis(trifluoromethyl)phenyl]-4-methyl-3-({[2-(methyl)(cyclohexyl-4-yl)amino]-5-(3,5-dimethylisoxazol-4-yl)pyridin-3-yl}methyl)-oxazolidin-2-one]
23 | 19.8 nM | CCN(c1ncc(Br)cc1CN1C(=O)O[C@H](c2cc(C(F)(F)F)cc(C(F)(F)F)c2)[C@@H]1C)C1CCOCC1 [Example 40, (4S,5R)-5-[3,5-bis(trifluoromethyl)phenyl]-4-methyl-3-({[2-(ethyl)(tetrahydro-2H-pyran-4-yl)amino]-5-bromopyridin-3-yl}methyl)-oxazolidin-2-one]
24 | 17.7 nM | CCN(c1ncc(-c2sccc2C)cc1CN1C(=O)O[C@H](c2cc(C(F)(F)F)cc(C(F)(F)F)c2)[C@@H]1C)C1CCCCC1 [Example 78, (4S,5R)-5-[3,5-bis(trifluoromethyl)phenyl]-4-methyl-3-({[2-(ethyl)(cyclohexyl)amino]-5-(3-methyl-thiophen-2-yl)pyridin-3-yl}methyl)-oxazolidin-2-one]
